What all share (test): relative viability (nuclei count vs DMSO), 5 days (fraction); higher = more cells survive
Compound in assay [1]: C1=CC=C2C(=C1)C=CC(=C2SSC3=C(C=CC4=CC=CC=C43)O)O [IPA-3] + CC(C)C[C@H](NC(=O)[C@H](Cc1ccccc1)NC(=O)c1cnccn1)B(O)O [Bortezomib] (partner 0.002 µM)
Summed up: (§1)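 Relative viability was taken as the ratio of nuclei in treated wells to nuclei in vehicle wells. Lung cancer cell lines in 1536-well plates received compounds by pin tool one day after seeding, either one drug alone or a fixed anchor-drug dose plus five library-drug doses (not always all listed) in √10 steps. Nuclei were counted on 4× images after 5 days of treatment, and values are medians of duplicate plates.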

Compound in assay [2]: C1=CC=C2C(=C1)C=CC(=C2SSC3=C(C=CC4=CC=CC=C43)O)O [IPA-3] + N=C(N)NC(=N)NCCc1ccccc1 [Phenformin] (partner 250 µM)
An outline of the steps:
as §1

Compound in assay [3]: C1=CC=C2C(=C1)C=CC(=C2SSC3=C(C=CC4=CC=CC=C43)O)O [IPA-3] + Cc1nc(Nc2ncc(C(=O)Nc3c(C)cccc3Cl)s2)cc(N2CCN(CCO)CC2)n1 [Dasatinib] (partner 0.075 µM)
An outline of the steps: as §1

Compound in assay [4]: Cc1ccc(-n2nc(C(C)(C)C)cc2NC(=O)Nc2ccc(OCCN3CCOCC3)c3ccccc23)cc1 [Doramapimod] + COc1cc2c(Oc3ccc(NC(=O)C4(C(=O)Nc5ccc(F)cc5)CC4)cc3F)ccnc2cc1OCCCN1CCOCC1 [Foretinib] (partner 0.25 µM)
An outline of the steps:
as §1

For UMC-11, the relative viability in assay [1] (first compound 0.2 µM) amounted to 0.923; in assay [1] (first compound 0.6325 µM), 0.767; in assay [1] (first compound 2 µM), 0.845; in assay [1] (first compound 6.325 µM) it was 0.726; in assay [1] (first compound 20 µM), 0.986; in assay [2] (first compound 0.2 µM), 0.391. Besides, the relative viability in assay [2] (first compound 0.6325 µM) stood at 0.336; in assay [2] (first compound 2 µM), 0.316; in assay [2] (first compound 6.325 µM), 0.341; in assay [2] (first compound 20 µM) it was 0.357; in assay [3] (first compound 0.2 µM), 0.605; in assay [3] (first compound 0.6325 µM), 0.421. Also, the relative viability in assay [3] (first compound 2 µM) is 0.483; in assay [3] (first compound 6.325 µM), 0.446; in assay [3] (first compound 20 µM), 0.489; in assay [4] (first compound 0.02 µM), 0.954; in assay [4] (first compound 0.06325 µM) it was 0.936; in assay [4] (first compound 0.2 µM), 0.932. The figures for the relative viability in assay [4] (first compound 0.6325 µM) and in assay [4] (first compound 2 µM) were 0.988 and 0.982, respectively.

For the origin of these results see the supplement of paper PMC10307832.
